Source: patent US8168651B2, “Protein kinase modulators” (Cylene Pharmaceuticals, Inc., priority 2008, dated 2012)
Where two headings read alike, the source gives them in different places.

Tests used:
[1] = system: HCT-116 human colorectal carcinoma cells; test: Cell-proliferation assay using Alamar Blue dye; assay type: cell-based; conditions: Homo sapiens;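 also: cells exposed to compound for about 4 days, then Alamar Blue added and dye fluorescence read after about 4 h, compared with medium-only control wells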
[2] = target: recombinant human PIM1 (Homo sapiens (Human), UniProt P11309); test: PIM-1 kinase activity in cell-free in vitro assay; assay type: biochemical; conditions: for inhibition at 0.5 µM: read-out: PIM-1: % inh 500 nM
Sequence of recombinant human PIM1 (P11309 whole entry): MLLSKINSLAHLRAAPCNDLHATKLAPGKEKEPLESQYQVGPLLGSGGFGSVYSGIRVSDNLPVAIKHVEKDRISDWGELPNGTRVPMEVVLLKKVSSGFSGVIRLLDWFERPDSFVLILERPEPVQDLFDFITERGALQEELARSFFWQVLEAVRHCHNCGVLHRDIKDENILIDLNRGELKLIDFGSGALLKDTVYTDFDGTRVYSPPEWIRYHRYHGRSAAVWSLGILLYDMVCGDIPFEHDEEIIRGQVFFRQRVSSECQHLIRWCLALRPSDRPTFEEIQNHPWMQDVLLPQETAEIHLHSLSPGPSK

[3] = HCT-116, read-out: HCT-116 (uM), cell proliferation modulatory activity, HCT-116, first column
[4] = HCT-116, read-out: HCT-116 (uM), cell proliferation modulatory activity, HCT-116, second column
[5] = HCT-116, HCT-116, second column, read-out: HCT-116 (uM), cell proliferation modulatory activity

Compound | IC50 [1, 3] | inhibition at 0.5 µM ([2]; 500 nM compound, cell-free) | IC50 [1, 4] | further results
O=C(O)c1ccc2c(c1)nc(OCCCO)c1ccsc12 | 10 µM | -34.7% |  | 
O=C(O)c1ccc2c(c1)nc(NCCCO)c1ccsc12 | 10 µM | -0.688% |  | 
O=C(O)c1ccc2c(c1)nc(NCCO)c1ccsc12 | 10 µM | -49.4% |  | 
O=C(O)c1ccc2c(c1)nc(NCc1ccccn1)c1ccsc12 | 10 µM | -36.6% |  | 
O=C(O)c1ccc2c(c1)nc(NCCN1CCOCC1)c1ccsc12 | 10 µM | -10% |  | 
O=C(O)c1ccc2c(c1)nc(NCc1ccncc1)c1ccsc12 | 10 µM | 71.3% |  | 
COc1ccccc1Nc1nc2cc(C(=O)O)ccc2c2sccc12 | 10 µM | 0.445% |  | 
O=C(O)c1ccc2c(c1)nc(Nc1cccc(O)c1)c1ccsc12 | 10 µM | 6.5% |  | 
COc1ccc(Nc2nc3cc(C(=O)O)ccc3c3sccc23)c(OC)c1 | 10 µM | 3.88% |  | 
O=C(O)c1ccc2c(c1)nc(NCCc1ccccc1)c1ccsc12 | 10 µM | 19.9% |  | 
O=C(O)c1ccc2c(c1)nc(Nc1ccc(F)cc1)c1ccsc12 | 10 µM | 66.7% |  | IC50 ([2]; cell-free): 0.32 µM
Cc1ccccc1Nc1nc2cc(C(=O)O)ccc2c2sccc12 | 10 µM | -15.5% |  | 
COc1cccc(Nc2nc3cc(C(=O)O)ccc3c3sccc23)c1 | 10 µM | 23.4% |  | 
O=C(O)c1ccc2c(c1)nc(Nc1ccc(F)cc1F)c1ccsc12 | 10 µM | 67.2% |  | IC50 ([2]; cell-free): 0.362 µM
O=C(O)c1ccc2c(c1)nc(NC1CC1)c1ccsc12 | 10 µM | 37.4% |  | 
O=C(O)c1ccc2c(c1)nc(N1CCc3ccccc31)c1ccsc12 | 10 µM | -9.95% |  | 
COc1ccc(Nc2nc3cc(C(=O)O)ccc3c3sccc23)cc1Cl | 10 µM | -2.65% |  | 
O=C(O)c1ccc2c(c1)nc(Nc1ccccc1O)c1ccsc12 | 10 µM | -3.12% |  | 
O=C(O)c1ccc2c(c1)nc(Nc1ccc(N3CCOCC3)cc1)c1ccsc12 | 10 µM |  |  | inhibition at 0.5 µM [2]: 1.17%

Compound | IC50 [1, 3] | inhibition at 0.5 µM ([2]; 500 nM compound, cell-free) | IC50 [1, 4] | further results
COc1ccc(OC)c(Nc2nc3cc(C(=O)O)ccc3c3sccc23)c1 | 10 µM | -3.22% |  | 
Fc1ccc(Nc2nc3cc(-c4nnn[nH]4)ccc3c3sccc23)cc1Cl | 10 µM | 67.4% |  | IC50 ([2]; cell-free): 0.702 µM
COc1cccc(Nc2nc3cc(-c4nnn[nH]4)ccc3c3sccc23)c1 | 10 µM | 55.7% |  | IC50 ([2]; cell-free): 0.352 µM
Clc1ccc(Nc2nc3cc(-c4nnn[nH]4)ccc3c3sccc23)cc1 | 10 µM | 66.4% |  | IC50 ([2]; cell-free): 0.501 µM
COc1ccc(Nc2nc3cc(-c4nnn[nH]4)ccc3c3sccc23)cc1Cl | 10 µM | 25.6% |  | 
CC(C)Oc1cccc(Nc2nc3cc(-c4nnn[nH]4)ccc3c3sccc23)c1 |  | 31.9% | > 10 µM | 
COc1cc(Nc2nc3cc(-c4nnn[nH]4)ccc3c3sccc23)cc(OC)c1 |  | 55.8% | 15 µM | IC50 ([2]; cell-free): 0.465 µM
COc1cc(Nc2nc3cc(-c4nnn[nH]4)ccc3c3sccc23)ccc1F |  | 35% | > 10 µM | 
CCOC(=O)c1cccc(Nc2nc3cc(-c4nnn[nH]4)ccc3c3sccc23)c1 |  | 34% |  | IC50 [1, 5]: > 10 µM
CC(C)c1cccc(Nc2nc3cc(-c4nnn[nH]4)ccc3c3sccc23)c1 |  | 35.9% |  | IC50 [1, 5]: > 10 µM
c1ccc2c(c1)ncn2-c1nc2cc(-c3nnn[nH]3)ccc2c2sccc12 |  | 71.6% |  | IC50 [1, 5]: 15 µM; IC50 ([2]; cell-free): > 1.1 µM
CCOc1cccc(Nc2nc3cc(-c4nnn[nH]4)ccc3c3sccc23)c1 |  | 57.7% | > 10 µM | IC50 ([2]; cell-free): 0.384 µM
CCc1cccc(Nc2nc3cc(-c4nnn[nH]4)ccc3c3sccc23)c1 |  | 61% | > 10 µM | IC50 ([2]; cell-free): > 1.1 µM
c1ccc(CNc2nc3cc(-c4nnn[nH]4)ccc3c3sccc23)cc1 |  | -21.2% |  | IC50 [1, 5]: > 10 µM
FC(F)(F)c1cc(Nc2nc3cc(-c4nnn[nH]4)ccc3c3sccc23)ccc1Cl |  | -46.4% |  | IC50 [1, 5]: > 10 µM
COc1cc(Nc2nc3cc(-c4nnn[nH]4)ccc3c3sccc23)ccc1C |  | 34.1% |  | IC50 [1, 5]: > 10 µM
c1cc2c(Nc3ccc4c(c3)OCO4)nc3cc(-c4nnn[nH]4)ccc3c2s1 |  | 18% |  | IC50 [1, 5]: > 10 µM
c1cc2c(Nc3ccc4c(c3)OCCO4)nc3cc(-c4nnn[nH]4)ccc3c2s1 |  | 26.7% | > 10 µM | 
CN(C)CCCNc1nc2cc(-c3nnn[nH]3)ccc2c2sccc12 |  | 58.2% |  | IC50 [1, 5]: 15 µM; IC50 ([2]; cell-free): 0.511 µM

Compound | IC50 [1, 3] | inhibition at 0.5 µM ([2]; 500 nM compound, cell-free) | IC50 [1, 4] | further results
N#Cc1ccc2c(c1)nc(Nc1ccccc1)c1ccncc12 |  | 2.12% |  | IC50 [1, 5]: 6.9 µM
CN(C)CCNc1nc2cc(C#N)ccc2c2cnccc12 |  | -11.5% |  | IC50 [1, 5]: 1.6 µM
O=C(O)c1ccc2c(c1)nc(Nc1cc(Cl)ccc1F)c1ccsc12 |  | 52.8% | > 10 µM | IC50 ([2]; cell-free): 0.42 µM
CCOc1cccc(Nc2nc3cc(C(=O)O)ccc3c3sccc23)c1 |  | 16.8% | > 10 µM | 
O=C(O)c1ccc2c(c1)nc(Nc1cccc(Oc3ccccc3)c1)c1ccsc12 |  | -10.2% | > 10 µM | 
NS(=O)(=O)c1cccc(Nc2nc3cc(C(=O)O)ccc3c3sccc23)c1 |  | 21.7% | > 10 µM | 
O=C(c1cccc(Nc2nc3cc(-c4nnn[nH]4)ccc3c3sccc23)c1)N1CCOCC1 |  | 21% | > 10 µM | 
CN(C)CCNC(=O)c1cccc(Nc2nc3cc(-c4nnn[nH]4)ccc3c3sccc23)c1 |  | 71.1% | > 10 µM | IC50 ([2]; cell-free): 0.38 µM
COC(=O)CNC(=O)c1cccc(Nc2nc3cc(-c4nnn[nH]4)ccc3c3sccc23)c1 |  | 48% | > 10 µM | 
O=C(NCc1cccnc1)c1cccc(Nc2nc3cc(-c4nnn[nH]4)ccc3c3sccc23)c1 |  | 29.6% | > 10 µM | 
CN(C)C(=O)c1cccc(Nc2nc3cc(-c4nnn[nH]4)ccc3c3sccc23)c1 |  | 49.1% | > 10 µM | 
CC(=O)N1CCN(C(=O)c2cccc(Nc3nc4cc(-c5nnn[nH]5)ccc4c4sccc34)c2)CC1 |  | 48.4% | > 10 µM | 
CCCNC(=O)c1cccc(Nc2nc3cc(C(=O)O)ccc3c3sccc23)c1 |  | 13.3% | > 10 µM | 
O=C(O)c1ccc2c(c1)nc(Nc1cccc(C(=O)N3CCOCC3)c1)c1ccsc12 |  | 46.4% | > 10 µM | 
O=C(O)CNC(=O)c1cccc(Nc2nc3cc(C(=O)O)ccc3c3sccc23)c1 |  | 24% | > 10 µM | 
CN(C)CCNC(=O)c1cccc(Nc2nc3cc(C(=O)O)ccc3c3sccc23)c1 |  | 74.7% | > 10 µM | IC50 ([2]; cell-free): 0.436 µM
O=C(O)c1ccc2c(c1)nc(Nc1cccc(C(=O)NC3CC3)c1)c1ccsc12 |  | 37.5% | > 10 µM | 
CNC(=O)Cc1cccc(Nc2nc3cc(C(=O)O)ccc3c3sccc23)c1 |  | 38% | > 10 µM | 
C#Cc1cccc(Nc2nc3cc(C(=O)O)ccc3c3cnc(NCCOC)nc23)c1 |  |  |  | IC50 ([1]; HCT-116, read-out: HCT-116 (uM), cell proliferation modulatory activity, HCT-116, second HCT-116 column (c8)): 8.05 µM; inhibition at 0.5 µM ([2]; 500 nM compound, cell-free assay): 55.5%; IC50 ([2]; cell-free assay): > 1.1 µM
